In US6506760B1, “Substituted hydrazinyl heteroaromatic inhibitors of thrombin” (Corvas International, Inc., priority 2000, dated 2003):
Like-named read-outs stand apart in the source and are kept apart here.

Tests used:
Format in all cases: biochemical
[1] = target: T1, bovine pancreatic trypsin (Bos taurus, UniProt P00760); experiment: Trypsin chromogenic assay, IC50; settings: 30 min incubation
T1 construct: bovine pancreatic trypsin was obtained from Worthington Biochemical Corp; purchased Worthington Biochemical Corp. TRL3; host or cells: bovine pancreas
T1 sequence (P00760 24-246): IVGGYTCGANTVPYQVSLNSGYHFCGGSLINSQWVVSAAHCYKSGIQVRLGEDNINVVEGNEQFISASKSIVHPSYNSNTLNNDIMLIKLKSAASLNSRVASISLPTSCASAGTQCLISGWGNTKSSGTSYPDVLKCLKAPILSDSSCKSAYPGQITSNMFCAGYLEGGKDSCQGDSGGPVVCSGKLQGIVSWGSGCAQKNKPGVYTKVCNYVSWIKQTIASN
Experimental: (§1) The ability of compounds of the present invention to act as a selective inhibitor of thrombin activity was assessed by determining the concentration of test-compound which inhibited the activity of this enzyme by 50%, (IC50), and comparing this value to that determined for all or some of the following related serine proteases: recombinant tissue plasminogen activator (rt-PA), plasmin, activated protein C, chymotrypsin, factor Xa and trypsin.
(§2) The buffer used for all assays was HBSA (10 mM HEPES, pH 7.5, 150 mM sodium chloride, 0.1% bovine serum albumin).
(§3) The assay for IC50 determinations was conducted by combining in appropriate wells of a Corning microtiter plate, 50 microliters of HBSA, 50 microliters of the test compound at a specified concentration (covering a broad concentration range) diluted in HBSA (or HBSA alone for V0 (uninhibited velocity) measurement), and 50 microliters of the enzyme diluted in HBSA. Following a 30 minute incubation at ambient temperature, 50 microliters of the substrate at the concentrations specified below were added to the wells, yielding a final total volume of 200 microliters. The initial velocity of chromogenic substrate hydrolysis was measured by the change in absorbance at 405 nm using a Thermo Max® Kinetic Microplate Reader over a 5 minute period in which less than 5% of the added substrate was utilized. The concentration of added inhibitor which caused a 50% decrease in the initial rate of hydrolysis was defined as the IC50 value.
Trypsin catalytic activity was determined using the chromogenic substrate, S-2222 (benzoyl-L-isoleucine-L-glutamic acid-[gamma-methyl ester]-L-arginine-p-nitroanilide), which was obtained from DiaPharma Group. […] Purified (3×-crystallized; TRL3) bovine pancreatic trypsin was obtained from Worthington Biochemical Corp. The enzyme was reconstituted in deionized water and diluted into HBSA prior to assay in which the final concentration was 0.5 nM.

human plasmin = human plasmin (Homo sapiens, UniProt P00747); experiment: Plasmin chromogenic assay, IC50; settings: 30 min incubation
Experimental: as §1, §2, §3
Plasmin catalytic activity was determined using the chromogenic substrate, S-2366 [L-pyroglutamyl-L-prolyl-L-arginine-p-nitroaniline hydrochloride], which was obtained from DiaPharma group. The substrate was made up in deionized water followed by dilution in HBSA prior to the assay in which the final concentration was 300 micromolar (about 2.5-times Km). Purified human plasmin was obtained from Enzyme Research Laboratories, Inc. The enzyme was diluted into HBSA prior to assay in which the final concentration was 1.0 nM.

Factor Xa = target: T2, Factor Xa (Homo sapiens, UniProt P00742); experiment: Factor Xa chromogenic assay, IC50; settings: 30 min incubation; read-out: fxa IC50 (30 min)
T2 construct: purchased Enzyme Research Laboratories, Inc. (South Bend, Ind.)
Experimental: as §1, §2, §3
Factor Xa catalytic activity was determined using the chromogenic substrate S-2765 (N-benzyloxycarbonyl-D-arginine-L-glycine-L-arginine-p-n itroaniline ), obtained from DiaPharma Group (Franklin, Ohio). All substrates were reconstituted in deionized water prior to use. […] Purified human Factor X was obtained from Enzyme Research Laboratories, Inc. (South Bend, Ind.) and Factor Xa (FXa) was activated and prepared from it as described [Bock, P. E., Craig, P. A., Olson, S. T., and Singh, P. Arch, Biochem. Biophys, 273:375-388 (1989)]. The enzyme was diluted into HBSA prior to assay in which the final concentration was 0.25 nM.

human α-thrombin = human α-thrombin (Homo sapiens, UniProt P00734); experiment: Thrombin (fIIa) chromogenic assay, IC50
[2] = 0 min incubation of enzyme with inhibitor, read-out: fIIa IC50 (0 min)
[3] = 30 min incubation of enzyme with inhibitor, read-out: fIIa IC50 (30 min)

T2 sequence (P00742 235-488 limits assumed): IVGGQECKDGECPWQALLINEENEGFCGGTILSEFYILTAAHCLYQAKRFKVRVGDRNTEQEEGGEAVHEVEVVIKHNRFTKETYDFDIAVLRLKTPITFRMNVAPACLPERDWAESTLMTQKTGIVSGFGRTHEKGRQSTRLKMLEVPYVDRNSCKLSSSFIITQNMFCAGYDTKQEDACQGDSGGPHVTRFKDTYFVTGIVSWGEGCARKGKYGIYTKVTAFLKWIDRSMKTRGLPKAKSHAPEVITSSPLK
T2 sequence (P00742 41-179 partner limits assumed): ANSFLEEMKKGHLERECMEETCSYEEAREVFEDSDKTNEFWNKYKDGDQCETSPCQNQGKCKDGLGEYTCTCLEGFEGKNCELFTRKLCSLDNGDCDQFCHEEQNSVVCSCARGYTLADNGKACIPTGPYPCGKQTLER
Sequence of human plasmin (P00747 581-810 limits assumed): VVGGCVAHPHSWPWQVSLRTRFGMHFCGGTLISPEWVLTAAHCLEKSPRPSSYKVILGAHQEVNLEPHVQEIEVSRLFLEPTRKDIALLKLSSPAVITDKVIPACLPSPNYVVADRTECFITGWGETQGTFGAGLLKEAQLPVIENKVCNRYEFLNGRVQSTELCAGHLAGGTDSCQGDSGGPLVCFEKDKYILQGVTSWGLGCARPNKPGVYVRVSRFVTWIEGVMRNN
Sequence of human plasmin (P00747 97-580 partner limits assumed): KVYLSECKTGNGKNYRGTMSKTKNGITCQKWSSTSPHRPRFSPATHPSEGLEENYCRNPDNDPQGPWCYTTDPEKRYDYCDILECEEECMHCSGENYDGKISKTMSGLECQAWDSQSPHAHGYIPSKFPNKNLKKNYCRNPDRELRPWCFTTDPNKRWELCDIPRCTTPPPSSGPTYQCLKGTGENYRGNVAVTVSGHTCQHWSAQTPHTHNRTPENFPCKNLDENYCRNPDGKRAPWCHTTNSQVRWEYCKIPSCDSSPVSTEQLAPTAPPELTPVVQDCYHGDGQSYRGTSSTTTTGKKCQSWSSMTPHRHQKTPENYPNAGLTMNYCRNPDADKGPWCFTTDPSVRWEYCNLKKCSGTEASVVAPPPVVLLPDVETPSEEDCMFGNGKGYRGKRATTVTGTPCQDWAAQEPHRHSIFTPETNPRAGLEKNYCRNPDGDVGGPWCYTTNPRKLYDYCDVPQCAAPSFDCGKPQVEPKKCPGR

Cc1nc(N)ccc1CNC(=O)Cn1c(C)cnc(NN(CCc2ccccc2)CCc2ccccc2)c1=O [Example 60, 1-[5-(2-Amino-6-methylpyridyl)methylcarboxamidomethyl]-6-methyl-3-[2,2-di(2-phenylethyl)hydrazino]pyrazinone, Hydrotrifluoroacetate]
IC50 [1]: ≥ 100 µM | IC50 (human plasmin): ≥ 100 µM | IC50 (Factor Xa): 2.5 to 100 µM | IC50 (human α-thrombin; [2]): ≤ 0.1 µM | IC50 (human α-thrombin; [3]): ≤ 0.1 µM

Cc1nc(N)ccc1CNC(=O)Cn1c(C)cnc(NNC(=O)OCc2ccccc2Cl)c1=O [Example 24, 1-[5-(2-Amino-6-methylpyridyl)methylcarboxamidomethyl]-3-[2-(2-chlorobenzyloxycarbonyl)hydrazino]-6-methylpyrazinone, Hydrotrifluoroacetate]
IC50 [1]: 2.5 to 100 µM | IC50 (human plasmin): ≥ 100 µM | IC50 (Factor Xa): ≥ 100 µM | IC50 (human α-thrombin; [2]): ≤ 0.1 µM | IC50 (human α-thrombin; [3]): ≤ 0.1 µM
